In brackets after ≈: the same amount, converted by molar mass.

Common to all, as to type: functional
The subject of assay [1] is Mycobacterium tuberculosis. The experiment in a line: Antitubercular activity against Mycobacterium tuberculosis H37Rv after 21 days by Lowenstein-Jensen method. The following applies: 504 h.
In a further assay the test system is Aspergillus niger. The experiment in a line: Antifungal activity against Aspergillus niger MTCC 282 after overnight incubation by broth microdilution method.
A further assay concerns Candida albicans. The assay can be described thus: Antifungal activity against Candida albicans MTCC 227 after overnight incubation by broth microdilution method. (In broth dilution the organism is exposed to a series of concentrations in liquid medium.)
The next assay concerns Salmonella typhi. The experiment in a line: Antibacterial activity against Salmonella enterica subsp. enterica serovar Typhi MTCC 98 after overnight incubation by broth microdilution method.
Another assay concerns Escherichia coli. The experiment in a line: Antibacterial activity against Escherichia coli MTCC 443 after overnight incubation by broth microdilution method.
Another assay relates to Bacillus subtilis. The experiment in a line: Antibacterial activity against Bacillus subtilis MTCC 441 after overnight incubation by broth microdilution method.
The next assay has as its system Staphylococcus aureus. The assay can be described thus: Antibacterial activity against Staphylococcus aureus MTCC 96 after overnight incubation by broth microdilution method.

`COc1cccc2cc(-c3ccc(C(=O)c4cc(Cl)ccc4O)cn3)c(=O)oc12` showed an MIC90 in assay [1] of 500 mg/L (≈ 1230 µM). In addition, the MIC99 is greater than 1000 mg/L in the assay on Aspergillus niger; greater than 1000 mg/L against Candida albicans; 200 mg/L (≈ 490 µM) in the assay on Salmonella typhi; 125 mg/L (≈ 307 µM) against Escherichia coli; 200 mg/L (≈ 490 µM) against Bacillus subtilis; 200 mg/L (≈ 490 µM) in the assay on Staphylococcus aureus.

Compound `Cc1ccc(O)c(C(=O)c2ccc(-c3cc4cc(Br)ccc4oc3=O)nc2)c1` came in with an MIC90 in assay [1] of 100 mg/L (≈ 229 µM). The MIC99 in the assay with Aspergillus niger was determined as 500 mg/L (≈ 1150 µM); against Candida albicans, 500 mg/L (≈ 1150 µM); in the assay on Salmonella typhi, 100 mg/L (≈ 229 µM); in the assay on Escherichia coli it was 100 mg/L (≈ 229 µM); against Bacillus subtilis, 500 mg/L (≈ 1150 µM); against Staphylococcus aureus, 500 mg/L (≈ 1150 µM).

As for `CC1(C)S[C@@H]2[C@H](NC(=O)[C@H](N)c3ccccc3)C(=O)N2[C@H]1C(=O)O` [AMPICILLIN], the MIC99 against Salmonella typhi came to 100 mg/L (≈ 286 µM); with Escherichia coli it was 100 mg/L (≈ 286 µM); with Bacillus subtilis it was 250 mg/L (≈ 715 µM); in the assay on Staphylococcus aureus, 250 mg/L (≈ 715 µM).

Regarding `COc1cccc2cc(-c3ccc(C(=O)c4ccccc4O)cn3)c(=O)oc12`, the MIC90 in assay [1] turned out to be 500 mg/L (≈ 1340 µM). The MIC99 with Aspergillus niger was greater than 1000 mg/L; against Candida albicans, 1000 mg/L (≈ 2680 µM); against Salmonella typhi it was 250 mg/L (≈ 670 µM); with Escherichia coli, 200 mg/L (≈ 536 µM); in the assay with Bacillus subtilis it was 200 mg/L (≈ 536 µM); in the assay on Staphylococcus aureus, 500 mg/L (≈ 1340 µM).

Turning to `O=C(c1ccc(-c2cc3c(ccc4ccccc43)oc2=O)nc1)c1ccccc1O`, the MIC90 in assay [1] came out at 250 mg/L (≈ 635 µM). Further, the MIC99 stood at 500 mg/L (≈ 1270 µM) against Aspergillus niger; 250 mg/L (≈ 635 µM) with Candida albicans; 250 mg/L (≈ 635 µM) against Salmonella typhi; 200 mg/L (≈ 508 µM) in the assay with Escherichia coli; 100 mg/L (≈ 254 µM) against Bacillus subtilis; 100 mg/L (≈ 254 µM) against Staphylococcus aureus.

With NYSTATIN, the MIC99 in the assay on Aspergillus niger and in the assay with Candida albicans was 100 mg/L throughout.

Regarding `Cc1ccc(O)c(C(=O)c2ccc(-c3cc4c(ccc5ccccc54)oc3=O)nc2)c1`, the MIC90 in assay [1] was 1000 mg/L (≈ 2450 µM). The MIC99 turned out to be 1000 mg/L (≈ 2450 µM) against Aspergillus niger; 500 mg/L (≈ 1230 µM) in the assay on Candida albicans; 250 mg/L (≈ 614 µM) against Salmonella typhi; 200 mg/L (≈ 491 µM) against Escherichia coli; 100 mg/L (≈ 245 µM) in the assay with Bacillus subtilis; 125 mg/L (≈ 307 µM) against Staphylococcus aureus.

On to `Cc1ccc(O)c(C(=O)c2ccc(-c3cc4ccccc4oc3=O)nc2)c1`, for which, in assay [1], the MIC90 stood at 100 mg/L (≈ 280 µM). Besides, the MIC99 against Aspergillus niger was 1000 mg/L (≈ 2800 µM); in the assay with Candida albicans it was 250 mg/L (≈ 700 µM); against Salmonella typhi, 200 mg/L (≈ 560 µM); with Escherichia coli, 250 mg/L (≈ 700 µM); in the assay with Bacillus subtilis, 200 mg/L (≈ 560 µM); with Staphylococcus aureus, 100 mg/L (≈ 280 µM).

In assay [1], `COc1cccc2cc(-c3ccc(C(=O)c4cc(C)ccc4O)cn3)c(=O)oc12` showed an MIC90 of 62.5 mg/L (≈ 161 µM). Also, the MIC99 against Aspergillus niger is 500 mg/L (≈ 1290 µM); against Candida albicans, 1000 mg/L (≈ 2580 µM); against Salmonella typhi, 100 mg/L (≈ 258 µM); against Escherichia coli, 100 mg/L (≈ 258 µM); in the assay on Bacillus subtilis, 250 mg/L (≈ 645 µM); in the assay on Staphylococcus aureus, 250 mg/L (≈ 645 µM).

In turn, `O=C(c1ccc(-c2cc3c(ccc4ccccc43)oc2=O)nc1)c1cc(Cl)ccc1O` displayed an MIC90 in assay [1] of 500 mg/L (≈ 1170 µM). The MIC99 amounted to 100 mg/L (≈ 234 µM) against Aspergillus niger; 1000 mg/L (≈ 2340 µM) in the assay with Candida albicans; 250 mg/L (≈ 584 µM) against Salmonella typhi; 250 mg/L (≈ 584 µM) against Escherichia coli; 125 mg/L (≈ 292 µM) against Bacillus subtilis; 100 mg/L (≈ 234 µM) with Staphylococcus aureus.

Take `O=C(c1ccc(-c2cc3cc(Br)ccc3oc2=O)nc1)c1ccccc1O`: the MIC90 in assay [1] came to 250 mg/L (≈ 592 µM). Also, the MIC99 in the assay on Aspergillus niger is greater than 1000 mg/L; with Candida albicans, 200 mg/L (≈ 474 µM); in the assay on Salmonella typhi it was 125 mg/L (≈ 296 µM); against Escherichia coli, 50 mg/L (≈ 118 µM); against Bacillus subtilis, 100 mg/L (≈ 237 µM); against Staphylococcus aureus, 200 mg/L (≈ 474 µM).

For the compound `O=C(c1ccc(-c2cc3ccccc3oc2=O)nc1)c1cc(Cl)ccc1O`, the MIC90 in assay [1] stood at 250 mg/L (≈ 662 µM). Moreover, the MIC99 in the assay on Aspergillus niger was greater than 1000 mg/L; in the assay with Candida albicans it was 500 mg/L (≈ 1320 µM); in the assay on Salmonella typhi, 250 mg/L (≈ 662 µM); against Escherichia coli, 250 mg/L (≈ 662 µM); in the assay with Bacillus subtilis, 200 mg/L (≈ 529 µM); against Staphylococcus aureus it was 250 mg/L (≈ 662 µM).

Compound `O=C(c1ccc(-c2cc3ccccc3oc2=O)nc1)c1ccccc1O` had an MIC90 in assay [1] of 1000 mg/L (≈ 2910 µM). Moreover, the MIC99 in the assay with Aspergillus niger was found to be 1000 mg/L (≈ 2910 µM); in the assay with Candida albicans, 500 mg/L (≈ 1460 µM); with Salmonella typhi, 125 mg/L (≈ 364 µM); against Escherichia coli, 100 mg/L (≈ 291 µM); with Bacillus subtilis it was 250 mg/L (≈ 728 µM); with Staphylococcus aureus it was 200 mg/L (≈ 583 µM).

Take `O=C(c1ccc(-c2cc3cc(Br)ccc3oc2=O)nc1)c1cc(Cl)ccc1O`: the MIC90 in assay [1] was 1000 mg/L (≈ 2190 µM). The MIC99 was greater than 1000 mg/L against Aspergillus niger; 100 mg/L (≈ 219 µM) in the assay with Candida albicans; 100 mg/L (≈ 219 µM) in the assay on Salmonella typhi; 62.5 mg/L (≈ 137 µM) in the assay with Escherichia coli; 100 mg/L (≈ 219 µM) with Bacillus subtilis; 62.5 mg/L (≈ 137 µM) against Staphylococcus aureus.

Turning to `COC1=CC(=O)C[C@@H](C)[C@]12Oc1c(Cl)c(OC)cc(OC)c1C2=O` [GRISEOFULVIN], the values for the MIC99 against Aspergillus niger and with Candida albicans were 100 mg/L (≈ 283 µM) and 500 mg/L (≈ 1420 µM), respectively.

As usually defined, the MIC90 is the lowest concentration that inhibits either 90% of growth or 90% of the strains tested, depending on the study. A word on the MIC99: it is the lowest concentration that inhibits either 99% of growth or 99% of the strains tested, depending on the study. High values mean lower susceptibility, low ones higher susceptibility.

These data come from ChEMBL document CHEMBL3045761, “One pot synthesis of some novel coumarins containing 5-(substituted-2-hydroxybenzoyl) pyridine as a new class of antimicrobial and antituberculosis agents” (2013).
